Test results taken from PMC8037569, “Neuroprotective Effect of Aurantio-Obtusin, a Putative Vasopressin V1A Receptor Antagonist, on Transient Forebrain Ischemia Mice Model” (International Journal of Molecular Sciences, 2021).
“Also recorded” adds a separate entry of the source.

Key:
hD3 receptor = target: T1, hD3 receptor (Homo sapiens, UniProt P35462); assay: GPCR functional assay: cAMP modulation by HTRF in transfected CHO cells; format: cell-based; conditions: 100 µM test compound
T1 construct: host or cells: CHO

hNK1R = target: T2, hNK1R (Homo sapiens, UniProt P25103); assay: GPCR functional assay: intracellular Ca2+ mobilization in U373MG cells; format: cell-based
T2 construct: Human endogenous (U373MG cells); host or cells: U373MG

h5-HT1AR = target: T3, h5-HT1AR (Homo sapiens, UniProt P08908); assay: GPCR functional assay: intracellular Ca2+ mobilization in Ba/F3 cells; format: cell-based
T3 construct: host or cells: Ba/F3 (murine pro-B)
T3 sequence (P08908 1-422): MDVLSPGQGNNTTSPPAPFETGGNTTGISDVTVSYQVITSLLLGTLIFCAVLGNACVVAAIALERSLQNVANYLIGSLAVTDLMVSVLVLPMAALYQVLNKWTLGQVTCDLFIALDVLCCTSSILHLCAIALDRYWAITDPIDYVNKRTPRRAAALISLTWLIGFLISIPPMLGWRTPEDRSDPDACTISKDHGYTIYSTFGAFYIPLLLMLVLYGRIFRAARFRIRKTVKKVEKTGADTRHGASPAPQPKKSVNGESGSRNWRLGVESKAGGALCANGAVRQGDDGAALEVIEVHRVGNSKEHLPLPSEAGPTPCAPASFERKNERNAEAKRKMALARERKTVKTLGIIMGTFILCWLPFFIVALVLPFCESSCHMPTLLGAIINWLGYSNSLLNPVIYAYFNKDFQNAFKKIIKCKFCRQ

hV1AR = target: T4, hV1AR (Homo sapiens, UniProt P37288); assay: GPCR functional assay: intracellular Ca2+ mobilization in transfected CHO cells; format: cell-based
T4 construct: host or cells: CHO

C57BL/6 mice [1] = assay: Transient forebrain ischemia (BCCAO) mice model, overall effect and tolerability; format: in vivo
Protocol: […]. The animals were housed five per cage, allowed access to water and food ad libitum; the environment was maintained at a constant temperature (23 ± 1 °C) and humidity (60 ± 10%) under a 12-h light/dark cycle (the lights were on from 07:30 to 19:30 h). Forty mice were divided equally into four groups (sham + vehicle, n = 10; sham + drug, n = 10; bilateral common carotid artery occluded ischemia + vehicle, n = 10; bilateral common carotid artery occluded ischemia + drug, n = 10) for experiment. The treatment and maintenance of the animals were carried out in accordance with the Animal Care and Use Guidelines of Dong-A University, Korea. All in vivo experiments were performed according to the protocols approved by the Institutional Animal Care and Use Committee of Dong-A University (approved protocol numbers: DIACUC-approved-17-20) and were in accordance with the National Institutes of Health guidelines.
C57BL/6 mice were anesthetized with 2.0% isoflurane and 70% nitrous oxide in oxygen and subjected to transient forebrain ischemia. The transient forebrain ischemia was induced by bilateral common carotid artery occlusion (BCCAO) with aneurysm clips for 20 min, and the circulation was restored by removing the clips. […] The regional cerebral blood flow (rCBF) was monitored using laser Doppler flowmetry (Perimed, PF5010, JarFalla, Sweden). […]

C57BL/6 mice [2] = assay: Passive avoidance test after transient forebrain ischemia (BCCAO); format: in vivo, mouse; conditions: 10 mg/kg, p.o., once daily, 1 h to 7 days after BCCAO; for Latency time in test trial of passive avoidance test: vs BCCAO group, p < 0.05
Protocol: Male C57BL/6 mice (22–26 g, 7 weeks) were purchased from the Orient Co. Ltd., a branch of Charles River Laboratories (Seoul, Korea), and kept in the University Animal Care Unit for 1 week prior to the experiments. The animals were housed five per cage, allowed access to water and food ad libitum; the environment was maintained at a constant temperature (23 ± 1 °C) and humidity (60 ± 10%) under a 12-h light/dark cycle (the lights were on from 07:30 to 19:30 h). Forty mice were divided equally into four groups (sham + vehicle, n = 10; sham + drug, n = 10; bilateral common carotid artery occluded ischemia + vehicle, n = 10; bilateral common carotid artery occluded ischemia + drug, n = 10) for experiment. The treatment and maintenance of the animals were carried out in accordance with the Animal Care and Use Guidelines of Dong-A University, Korea. All in vivo experiments were performed according to the protocols approved by the Institutional Animal Care and Use Committee of Dong-A University (approved protocol numbers: DIACUC-approved-17-20) and were in accordance with the National Institutes of Health guidelines.
C57BL/6 mice were anesthetized with 2.0% isoflurane and 70% nitrous oxide in oxygen and subjected to transient forebrain ischemia. The transient forebrain ischemia was induced by bilateral common carotid artery occlusion (BCCAO) with aneurysm clips for 20 min, and the circulation was restored by removing the clips. Mice that received the same surgical operation without carotid artery clipping served as sham-operated controls. During the surgical procedure, the rectal temperature was maintained at 37 ± 0.5 °C with a heating pad (Biomed S.L., Barcelona, Spain). The regional cerebral blood flow (rCBF) was monitored using laser Doppler flowmetry (Perimed, PF5010, JarFalla, Sweden). […]
Passive avoidance test was conducted 1 h after the last drug administration. […] For the retention trial, the mouse was again placed in the light compartment and the time required to enter the dark compartment was recorded.

[3] = tested on: angiotensin-converting enzyme (ACE); set-up: method as in PMID 18803227; conditions: cited from earlier work
rat = tested on: rat; set-up: method as in PMID 31547563; conditions: cited from earlier work

T4 sequence (P37288 whole entry): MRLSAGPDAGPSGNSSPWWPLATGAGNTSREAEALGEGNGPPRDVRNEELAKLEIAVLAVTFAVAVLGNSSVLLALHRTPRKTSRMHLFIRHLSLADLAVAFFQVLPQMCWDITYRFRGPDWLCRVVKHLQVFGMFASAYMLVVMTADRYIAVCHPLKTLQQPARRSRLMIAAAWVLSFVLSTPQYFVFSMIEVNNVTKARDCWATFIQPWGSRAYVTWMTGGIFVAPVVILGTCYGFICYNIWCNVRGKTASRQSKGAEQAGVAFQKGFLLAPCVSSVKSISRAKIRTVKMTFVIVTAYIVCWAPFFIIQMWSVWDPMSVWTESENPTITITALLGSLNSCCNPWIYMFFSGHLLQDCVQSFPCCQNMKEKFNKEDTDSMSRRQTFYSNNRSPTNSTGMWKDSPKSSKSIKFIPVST
T2 sequence (P25103 whole entry): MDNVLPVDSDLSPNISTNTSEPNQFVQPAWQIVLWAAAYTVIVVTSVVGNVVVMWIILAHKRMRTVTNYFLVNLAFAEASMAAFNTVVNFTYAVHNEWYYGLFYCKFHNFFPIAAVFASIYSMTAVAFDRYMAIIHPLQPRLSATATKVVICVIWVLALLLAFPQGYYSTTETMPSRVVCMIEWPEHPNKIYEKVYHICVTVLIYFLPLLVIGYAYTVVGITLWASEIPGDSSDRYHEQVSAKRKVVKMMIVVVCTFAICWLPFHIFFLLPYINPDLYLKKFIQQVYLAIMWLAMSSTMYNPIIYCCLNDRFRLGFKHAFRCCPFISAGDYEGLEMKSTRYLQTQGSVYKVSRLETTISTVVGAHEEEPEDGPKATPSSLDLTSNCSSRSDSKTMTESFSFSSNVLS
T1 sequence (P35462 whole entry): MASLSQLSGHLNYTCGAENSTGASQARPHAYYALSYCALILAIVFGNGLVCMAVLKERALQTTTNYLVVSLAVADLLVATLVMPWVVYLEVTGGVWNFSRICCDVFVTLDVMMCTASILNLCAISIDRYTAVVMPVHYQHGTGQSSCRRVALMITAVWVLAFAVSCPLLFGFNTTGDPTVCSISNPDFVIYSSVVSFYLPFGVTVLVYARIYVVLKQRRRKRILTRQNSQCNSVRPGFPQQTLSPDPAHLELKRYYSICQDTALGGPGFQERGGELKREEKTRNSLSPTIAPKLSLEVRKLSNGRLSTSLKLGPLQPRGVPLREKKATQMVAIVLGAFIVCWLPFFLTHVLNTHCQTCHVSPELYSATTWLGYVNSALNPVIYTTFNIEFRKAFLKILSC

COc1c(O)cc2c(c1O)C(=O)c1c(cc(C)c(O)c1OC)C2=O [Aurantio-obtusin, 1,3,7-trihydroxy-2,8-dimethoxy-6-methylanthracene-9,10-dione]
% Stimulation (agonist effect) of control agonist response, D3 (h) (hD3 receptor; control response to 300 nM dopamine): 33.00 ± 1.84% | inhibition at 100 µM (hD3 receptor; CHO, agonist response of 10 nM dopamine, read-out: % Inhibition (antagonist effect) of control agonist response, D3 (h) (converted)): -2.3% | % Stimulation (agonist effect) of control agonist response, NK1 (h) (hNK1R; 100 µM test compound, control response to 30 nM [Sar9, Met(O2)11]-SP): −6.40 ± 0.00% | inhibition at 100 µM (hNK1R; U373 MG, read-out: % Inhibition (antagonist effect) of control agonist response, NK1 (h) (converted)): 47.6% | % Stimulation (agonist effect) of control agonist response, 5-HT1A (h) (h5-HT1AR; 100 µM test compound, control response to serotonin (2.5 μM)): −6.10 ± 0.00% | inhibition at 100 µM (h5-HT1AR; BaF3, read-out: % Inhibition (antagonist effect) of control agonist response, 5-HT1A (h) (converted)): 10.1% | % Stimulation (agonist effect) of control agonist response, V1A (h) (hV1AR; 100 µM test compound, control response to 1 μM AVP): −33.20 ± 2.69% | inhibition at 100 µM (hV1AR; CHO, 100 µM test compound, control response to 10 nM AVP, read-out: % Inhibition (antagonist effect) of control agonist response, V1A (h) (converted)): 71.8% | IC50 (hV1AR; concentrations up to 100 µM, control response to 10 nM AVP, read-out: V1AR antagonist effect IC50): 67.7 ± 2.41 µM | Toxicity of treatment alone (sham + drug) (C57BL/6 mice [1]; 10 mg/kg, p.o., once daily, compared to sham group): no toxicity | Effect in BCCAO model, pilot study (C57BL/6 mice [1]; 1, 5 and 10 mg/kg tested, result for 10 mg/kg): effective | Latency time in training trial of passive avoidance test (C57BL/6 mice [2]; n = 8/group): no significant differences | Latency time in test trial of passive avoidance test (C57BL/6 mice [2]): significantly attenuated the reduction of latency time | Latency time in test trial of passive avoidance test (C57BL/6 mice [2]; listed as aurantio-obtusin): attenuated the latency time; also recorded: attenuated that reduction significantly | Inhibition of ACE activity [3]: no activity | Dose causing hepatoxicity (rat): > 40 mg/kg
